Test results as given in paper PMC3589659 (Investigational New Drugs, 2012).
Like-named read-outs stand apart in the source and are kept apart here. Marks after values point to notes of the source that are not given here.

How the values were obtained:
[1] = system: patients with advanced solid tumors; details: human, in vivo
[2] = system: patients with advanced solid tumors; assay: Phase I dose escalation: dose-limiting toxicities and maximum tolerated dose; details: oral once daily, 3-week-on/1-week-off schedule
[3] = system: pMAPK in epidermal keratinocytes; assay: Pharmacodynamics: immunohistochemistry on skin punch biopsies, pMAPK; details: pretreatment versus on-therapy (Day 21)
[4] = system: patients with advanced solid tumors; assay: Safety and tolerability: adverse events graded by CTCAE version 3.0; type: in vivo, human
[5] = system: Ki-67 in epidermal keratinocytes; details: doses of ≥ 55 mg/day, Day 21 versus pretreatment
[6] = human, in vivo
[7] = system: pAkt in epidermal keratinocytes; assay: Pharmacodynamics: immunohistochemistry on skin punch biopsies, pAkt; details: pretreatment versus on-therapy (Day 21)
advanced solid tumors = assay: Antitumor activity, objective tumor response by RECIST 1.0
clinical = details: human, in vivo; for AUC(0-t): AUC0–24,ss; for CL/F: CL/Fss; for Cmax: Cmax,ss; for Vd/F: Vz/Fss
[8] = Plasma pharmacokinetics, non-compartmental analysis; details: 65 mg once daily, Day 21, individual values of 2 patients
[9] = system: p27^KIP1 in epidermal keratinocytes; assay: Pharmacodynamics: immunohistochemistry on skin punch biopsies, p27KIP1; details: doses of ≥ 55 mg/day, Day 21

Compound: CN(C)C/C=C/C(=O)Nc1cc2c(Nc3ccc(F)c(Cl)c3)ncnc2cc1O[C@H]1CCOC1 [afatinib]
- Discontinued due to DLT, n (%) [1]: 4 (9.3) n (%)
- DLTs occurring during the first treatment cycle, n (%) ([1]; 28 day): 11 (25.6) n (%)
- recommended dose for further studies using this schedule ([1]; 28 day): 40 mg/day
- maximum tolerated dose (MTD) [2]: 55 mg/day
- change in level of pMAPK in normal skin punch biopsies [3]: No significant changes
- drug-related diarrhea ([4]; 10 mg): no drug-related diarrhea was observed
- treatment-related Grade ≥2 AEs ([4]; 10 mg dose cohort): No treatment-related Grade ≥2 AEs were observed
- drug-related diarrhea ([4]; 20 mg): no drug-related diarrhea was observed
- patients who developed diarrhea ([4]; 40 mg): 50%
- Discontinued due to other toxicity, n (%) ([4]; 40 mg/day): 1 (12.5) n (%)
- patients who developed diarrhea ([4]; 55 mg): 90%
- Discontinued due to other toxicity, n (%) ([4]; 55 mg/day): 4 (20.0) n (%)
- Discontinued due to other toxicity, n (%) ([4]; 65 mg/day): 2 (33.3) n (%)
- patients who developed diarrhea ([4]; 65 mg/day): 100%
- Discontinued due to other toxicity, n (%) ([4]; Total, all doses): 7 (16.3) n (%)
- Grade 4 or 5 AEs ([4]; all doses): No Grade 4 or 5 AEs were observed
- Grade ≥2 reductions in LVEF ([4]; all doses): No patients had Grade ≥2 reductions in LVEF
- cases in which diarrhea started within 1–7 days after treatment initiation ([4]; all doses): 80%
- patients who experienced a serious adverse event (SAE) ([4]; all doses): 34.9%
- patients with drug-related AEs within their first 28-day cycle ([4]; all doses): 38 patients
- skin events considered to be related to afatinib ([4]; all doses): 91%
- drug-related anorexia ([4]; all doses, entire trial): 16.3%
- drug-related diarrhea ([4]; all doses, entire trial): 65.1%
- drug-related epistaxis ([4]; all doses, entire trial): 23.3%
- drug-related fatigue ([4]; all doses, entire trial): 20.9%
- drug-related mucosal inflammation ([4]; all doses, entire trial): 23.3%
- drug-related nausea ([4]; all doses, entire trial): 41.9%
- drug-related rash ([4]; all doses, entire trial): 58.1%
- drug-related stomatitis ([4]; all doses, entire trial): 25.6%
- drug-related vomiting ([4]; all doses, entire trial): 34.9%
- start of skin events after treatment initiation ([4]; majority of cases): 7 to 28 days
- start of diarrhea after afatinib treatment initiation ([4]; majority of cases (80 %)): 1 to 7 days
- deaths during afatinib administration considered to be related to afatinib ([4]; three deaths occurred): None
- reduction of the number of Ki-67-positive cells in skin biopsies [5]: 31%
- time to reach steady-state [6]: ≤ 8 days
- AUC0–24,ss,norm ([6]; 10 mg): 6.37 (99.8) [ng·h/mL]/mg
- Cmax,ss,norm ([6]; 10 mg): 0.399 (83.7) [ng/mL]/mg
- AUC0–24,ss,norm ([6]; 20 mg): 22.8 (61.8) [ng·h/mL]/mg
- Cmax,ss,norm ([6]; 20 mg): 1.57 (94.1) [ng/mL]/mg
- AUC0–24,ss,norm ([6]; 40 mg): 22.7 (69.1) [ng·h/mL]/mg
- Cmax,ss,norm ([6]; 40 mg): 1.47 (83.7) [ng/mL]/mg
- AUC0–24,ss,norm ([6]; 55 mg): 24.7 (68.1)^b [ng·h/mL]/mg
- Cmax,ss,norm ([6]; 55 mg): 1.65 (67.8)^b [ng/mL]/mg
- change in level of pAkt in paired skin biopsies [7]: no significant difference
- Discontinued due to disease progression, n (%) (advanced solid tumors; 10 mg/day): 3 (100.0) n (%)
- Discontinued due to disease progression, n (%) (advanced solid tumors; 20 mg/day): 2 (33.3) n (%)
- Discontinued due to disease progression, n (%) (advanced solid tumors; 40 mg/day): 3 (37.5) n (%)
- Discontinued due to disease progression, n (%) (advanced solid tumors; 55 mg/day): 8 (40.0) n (%)
- Discontinued due to disease progression, n (%) (advanced solid tumors; 65 mg/day): 1 (16.7) n (%)
- confirmed objective responses (advanced solid tumors; RECIST 1.0, all doses): no confirmed objective responses
- Discontinued due to disease progression, n (%) (advanced solid tumors; Total, all doses): 17 (39.5) n (%)
- decrease in tumor size (advanced solid tumors; one patient with CRC): 14%
- decrease in tumor size (advanced solid tumors; one patient with NSCLC): 27%
- tumor shrinkage (advanced solid tumors; one patient with parotid carcinoma, Cycle 4, maintained until Cycle 6): 13%
- patients with stable disease for at least 16 weeks (advanced solid tumors; received at least 5 cycles of treatment): 8 patients
- Tmax (clinical; 10 mg): 4 h
- half-life (clinical; 10 mg): 35.7 h
- AUC(0-t) (clinical; 10 mg): 0.0637 µg·h/mL
- CL/F (clinical; 10 mg): 2620 mL/min
- Cmax (clinical; 10 mg): 0.00399 µg/mL
- Vd/F (clinical; 10 mg): 8080 L
- half-life (clinical; 20 mg): 43.2 h
- AUC(0-t) (clinical; 20 mg): 0.455 µg·h/mL
- CL/F (clinical; 20 mg): 732 mL/min
- Cmax (clinical; 20 mg): 0.0313 µg/mL
- Vd/F (clinical; 20 mg): 2740 L
- half-life (clinical; 40 mg): 42.8 h
- CL/F (clinical; 40 mg): 734 mL/min
- Cmax (clinical; 40 mg): 0.0589 µg/mL
- Vd/F (clinical; 40 mg): 2720 L
- half-life (clinical; 55 mg): 35.1 h
- AUC(0-t) (clinical; 55 mg): 1.36 µg·h/mL
- CL/F (clinical; 55 mg): 653 mL/min
- Cmax (clinical; 55 mg): 0.0908 µg/mL
- Vd/F (clinical; 55 mg): 2040 L
- Tmax (clinical; 65 mg): 9 h
- t½,ss [8]: 25.8 h
- increase in the total number of p27^KIP1-positive epidermal keratinocytes versus pretreatment [9]: about 16%
